In ChEMBL document CHEMBL5608113, “Targeting of CAF-induced therapy resistance in CRC organoid-stroma co-cultures” (2024):

What was measured:
Format in all cases: functional, Homo sapiens
Details in all cases: Homo sapiens, read-out: Cell Viability; for viability at 10 µM: Concentration 10 uM; for viability at 1 µM: Concentration 1 uM
Colon cancer organoid [1] = assay: Targeting of F14 CAF-induced therapy resistance in O14 CRC organoid-stroma co-culture. Cell viability is reported with Gefitinib.
Colon cancer organoid [2] = assay: Targeting of F14 CAF-induced therapy resistance in O23 CRC organoid-stroma co-culture. Cell viability is reported with Gefitinib.
Colon cancer organoid [3] = assay: Targeting of F14 CAF-induced therapy resistance in O23 CRC organoid-stroma co-culture. Cell viability is reported with SN-38.
Colon cancer organoid [4] = assay: Targeting of F14 CAF-induced therapy resistance in O23 CRC organoid-stroma co-culture. Cell viability is reported without Gefitinib.
Colon cancer organoid [5] = assay: Targeting of F14 CAF-induced therapy resistance in O14 CRC organoid-stroma co-culture. Cell viability is reported without Gefitinib.

Row | Compound | viability at 10 µM (Colon cancer organoid [1]) [%] | viability at 10 µM (Colon cancer organoid [2]) [%] | viability at 10 µM (Colon cancer organoid [3]) [%] | viability at 10 µM (Colon cancer organoid [4]) [%] | viability at 10 µM (Colon cancer organoid [5]) [%] | viability at 1 µM (Colon cancer organoid [1]) [%] | viability at 1 µM (Colon cancer organoid [2]) [%] | viability at 1 µM (Colon cancer organoid [3]) [%] | viability at 1 µM (Colon cancer organoid [4]) [%] | viability at 1 µM (Colon cancer organoid [5]) [%]
1 | CCC(=O)N1CCOc2c(cc(-c3ccc(OC)c(OC)c3)cc2OCC2CCCN(C)C2)C1 (stereo not given) | 74.7 | 60.4 | 96.1 | 119 | 102 | – | – | – | – | –
2 | CC(=O)c1cc(-c2cc(C(=O)NC3CC3)ccc2C)c2ncccn12 | 65.1 | 71.5 | 91.2 | 108 | 83.8 | – | – | – | – | –
3 | CN1C[C@H](Nc2cnn(C)c(=O)c2Br)C[C@H](c2ccccc2)C1 | 64.7 | 68.1 | 66.4 | 143 | 84.6 | – | – | – | – | –
4 | O=C1CCc2cc(Nc3cc(OC4CCOCC4)c([N+](=O)[O-])cc3Cl)ccc2N1 | 75.9 | 57.9 | 60.5 | 117 | 112 | – | – | – | – | –
5 | Cc1cc2c(cc1N1C(=O)c3cccc4c(CCCO)ccc(c34)C1=O)n(C)c(=O)n2C | 43.3 | 71.7 | 81.8 | 150 | 47.7 | – | – | – | – | –
6 | c1ccc([C@@H]2C[C@H]2NC2CCNCC2)cc1 | 58.2 | 68 | 68.3 | 79.5 | 114 | – | – | – | – | –
7 | Cn1cc(CCn2cnc(-c3cnn(C)c3)c2-c2ccc(C#N)cc2)cn1 | 71.4 | 63.6 | 92.5 | 141 | 105 | – | – | – | – | –
8 | Cc1nnc2c3ccccc3c(N[C@@H](C)[C@H](c3ccccc3)N(C)C)nn12 | 53.6 | 55.2 | 141 | 119 | 69.8 | – | – | – | – | –
9 | O=C(O)c1cc(-c2ccc(C3CCNCC3)cc2)c2ccc(-c3ccc(C(F)(F)F)cc3)cc2c1 | 34.4 | 47.6 | 60.3 | 165 | 77 | – | – | – | – | –
10 | Cc1c(C(=O)O)cc(-c2ccc(C3CCNCC3)cc2)c2ccc(-c3ccc(C(F)(F)F)cc3)cc12 | 38.7 | 48.3 | 76.8 | 143 | 64.2 | – | – | – | – | –
11 | C[C@@H](c1cccc(CN)c1)n1cc(Cl)cc(C(N)=O)c1=N | 33.4 | 51 | 99.7 | 172 | 106 | – | – | – | – | –
12 | Cc1c(Nc2ccc(S(=O)(=O)N3CCN(C)CC3)cc2F)nc2ccc(Nc3cnn(C4CC4)c3)cn2c1=O | 53 | 115 | 71.2 | 118 | 68.6 | – | – | – | – | –
13 | CCCCN(CCCC)C(=O)CN1C[C@H](c2cc(OC)c3c(c2)OCO3)[C@@H](C(=O)O)[C@@H]1CC(C)(C)CCC | – | – | – | – | – | 44.1 | 50 | 115 | 145 | 125
14 | C[C@@H](c1cccc(C#N)c1)n1cc(Cl)cc(C(N)=O)c1=N | 34.3 | 49.6 | 62.2 | 126 | 76.7 | – | – | – | – | –
15 | O=C(Nc1cccnn1)N1CC(C/C=C/c2cncc(Oc3ccc(C(F)(F)F)cn3)n2)C1 | 55.5 | 50.3 | 83.6 | 132 | 93.5 | – | – | – | – | –
16 | Cc1c(Nc2ccc(S(=O)(=O)N3CCN(C)CC3)cc2F)nc2ccc(-c3cnn(C4CC4)c3)cn2c1=O | 69.8 | 88.9 | 85.7 | 153 | 51.6 | – | – | – | – | –
17 | NC1(c2ccc(-c3nc4c(O)ccnn4c3-c3ccccc3)cc2)CCC1 | – | – | – | – | – | 49.5 | 69.1 | 65 | 122 | 98.8
18 | CCNC(=O)c1cc2c(N3CCOCC3C)ccnc2[nH]1 (stereo not given) | 55.4 | 56.4 | 97.3 | 156 | 130 | – | – | – | – | –
19 | COc1ccccc1C(=O)Nc1cc2c(cc1N1CCNCC1C)n(C)c(=O)n2C (stereo not given) | 66 | 56.5 | 55.3 | 84 | 98.7 | – | – | – | – | –
20 | COc1cccc2c1C(=O)c1c(O)c3c(c(O)c1C2=O)CC(O)(C(=O)CO)CC3OC1CC(N)C(O)C(C)O1 (stereo not given) | 0.921 | 1.62 | 5.38 | 3.9 | 1.66 | – | – | – | – | –
21 | Cn1cncc1[C@](O)(COc1ccc(C#N)cc1-c1ccc(OC(F)(F)F)cc1)c1ccc(C#N)cc1 | 18.5 | 40.9 | 76.2 | 75.6 | 47 | – | – | – | – | –
